Reference: US20170283834A1, “Processes for Producing A Fermentation Product Using A Fermenting Organism” (Novozymes A/S, priority 2014, published 2017)
Where “and” joins values, the source holds several entries; their conditions need not be identical. Equal entries are not always repeated.

How the values were obtained:
Ethanol Red™ = experiment: Addition of benzoate, propionate and formate to ethanol fermentations (SSF of corn mash); format: cell-based, Saccharomyces cerevisiae; settings: for Glycerol pH 3.8 (w/v %) / Glycerol pH 5 (w/v %) / ETOH pH 3.8 (w/v %) / ETOH pH 5 (w/v %) / % Boost over no added acid: 54 hours; for % Boost over no added acid: ethanol; for % Change from no added acid: glycerol
Experimental: Industrially prepared corn mash was obtained from Lincolnland (Liquozyme™ SODS liquefaction).
After 15 minutes, the flasks were swirled, but no other agitation took place.
The pH after liquefaction was 4.9 and was adjusted to various pHs for SSF. […] Glucoamylase SA (“GSA”)/Cellulase VD (“CVD”) enzyme blend was dosed to each tube of mash at 110 μg EP GSA/gDS and 30 μg EP CVD/gDS. […] Benzoic acid was added in the range of 0-0.8 mM. Propionic and Formic acid were added in the range of 0-30 mM. All acid additions were done prior to inoculation (i.e., before exponential growth).
Each tube was processed for HPLC analysis by deactivation with 150 μL of 40% v/v H2SO4, vortexing, centrifuging at 1460×g for 10 minutes, and filtering through a 0.45 μm Whatman PP filter. All samples were processed without further dilution.

zein = experiment: Relative activity assay of protease variants (zein micro titer plate); format: biochemical
Method in brief: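 Relative activity is the ratio of zein clearance (A630 turbidity) at a higher versus lower temperature, e.g. 60/65 °C or 70/80 °C. Supernatants from 3-day yeast cultures applied to 0.05-0.1% zein agar in 20 mM sodium acetate pH 4.5 with zinc, incubated at least 4 h.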

[1] = acid Concentration 10 (mM), pH 3.8
[2] = acid Concentration 10 (mM), pH 5
[3] = acid Concentration 20 (mM), pH 3.8
[4] = acid Concentration 20 (mM), pH 5
[5] = acid Concentration 30 (mM), pH 3.8
[6] = acid Concentration 30 (mM), pH 5
[7] = acid Concentration 0.2 (mM), pH 3.8
[8] = acid Concentration 0.2 (mM), pH 5
[9] = acid Concentration 0.5 (mM), pH 3.8
[10] = acid Concentration 0.5 (mM), pH 5
[11] = acid Concentration 0.8 (mM), pH 3.8
[12] = acid Concentration 0.8 (mM), pH 5

With O=CO [Formic Acid, formic acid] the “effect of acid addition on fermentation performance” value (Ethanol Red™) was “boost”, the “Glycerol pH 3.8 (w/v %)” value (Ethanol Red™; Concentration 10 mM, pH 3.8) was 1.078 w/v % and the “Glycerol pH 5 (w/v %)” value (Ethanol Red™; Concentration 10 mM, pH 5) was 1.175 w/v %. For the same molecule, the “Glycerol pH 3.8 (w/v %)” value (Ethanol Red™; Concentration 20 mM, pH 3.8) was 1.070 w/v %, the “Glycerol pH 5 (w/v %)” value (Ethanol Red™; Concentration 20 mM, pH 5) was 1.117 w/v % and the “Glycerol pH 3.8 (w/v %)” value (Ethanol Red™; Concentration 30 mM, pH 3.8) was 0.966 w/v %. The “Glycerol pH 5 (w/v %)” value (Ethanol Red™; Concentration 30 mM, pH 5) was 1.111 w/v %, the “ETOH pH 3.8 (w/v %)” value (Ethanol Red™; [1]) was 13.69 w/v % and the “ETOH pH 5 (w/v %)” value (Ethanol Red™; [2]) was 13.1 w/v %. For the same molecule, the “ETOH pH 3.8 (w/v %)” value (Ethanol Red™; [3]) was 13.41 w/v %, the “ETOH pH 5 (w/v %)” value (Ethanol Red™; [4]) was 13.22 w/v % and the “ETOH pH 3.8 (w/v %)” value (Ethanol Red™; [5]) was 6.458 w/v %. The “ETOH pH 5 (w/v %)” value (Ethanol Red™; [6]) was 13.2 w/v %, the “% Boost over no added acid” value (Ethanol Red™; [1]) was 2.45% and the “% Boost over no added acid” value (Ethanol Red™; [2]) was 0.94%. For the same molecule, the “% Boost over no added acid” value (Ethanol Red™; [3]) was 0.31%, the “% Boost over no added acid” value (Ethanol Red™; [4]) was 1.84% and the “% Boost over no added acid” value (Ethanol Red™; [5]) was −51.69%. For the same molecule, the “% Boost over no added acid” value (Ethanol Red™; [6]) was 1.70%, the “% Change from no added acid” value (Ethanol Red™; Concentration 10 mM, pH 3.8) was −17.68% and the “% Change from no added acid” value (Ethanol Red™; Concentration 10 mM, pH 5) was −12.49%. The “% Change from no added acid” value (Ethanol Red™; Concentration 20 mM, pH 3.8) was −18.24%, the “% Change from no added acid” value (Ethanol Red™; Concentration 20 mM, pH 5) was −16.81% and the “% Change from no added acid” value (Ethanol Red™; Concentration 30 mM, pH 3.8) was −26.19%. For the same molecule, the “% Change from no added acid” value (Ethanol Red™; Concentration 30 mM, pH 5) was −17.26%.

For CCC(=O)O [Propionic Acid, propionic acid], the “Glycerol pH 3.8 (w/v %)” value (Ethanol Red™; Concentration 10 mM, pH 3.8) was 0.985 w/v %, the “Glycerol pH 5 (w/v %)” value (Ethanol Red™; Concentration 10 mM, pH 5) was 1.017 w/v % and the “Glycerol pH 3.8 (w/v %)” value (Ethanol Red™; Concentration 20 mM, pH 3.8) was 0.896 w/v %. For the same molecule, the “Glycerol pH 5 (w/v %)” value (Ethanol Red™; Concentration 20 mM, pH 5) was 0.927 w/v %, the “Glycerol pH 3.8 (w/v %)” value (Ethanol Red™; Concentration 30 mM, pH 3.8) was 0.654 w/v % and the “Glycerol pH 5 (w/v %)” value (Ethanol Red™; Concentration 30 mM, pH 5) was 0.874 w/v %. The “ETOH pH 3.8 (w/v %)” value (Ethanol Red™; [1]) was 13.2 w/v %, the “ETOH pH 5 (w/v %)” value (Ethanol Red™; [2]) was 13.26 w/v % and the “ETOH pH 3.8 (w/v %)” value (Ethanol Red™; [3]) was 11.67 w/v %. For the same molecule, the “ETOH pH 5 (w/v %)” value (Ethanol Red™; [4]) was 12.87 w/v %, the “ETOH pH 3.8 (w/v %)” value (Ethanol Red™; [5]) was 3.064 w/v % and the “ETOH pH 5 (w/v %)” value (Ethanol Red™; [6]) was 11.8064 w/v %. For the same molecule, the “% Boost over no added acid” value (Ethanol Red™; [1]) was −1.27%, the “% Boost over no added acid” value (Ethanol Red™; [2]) was 2.2% and 2.21% and the “% Boost over no added acid” value (Ethanol Red™; [3]) was −12.7%. For the same molecule, the “% Boost over no added acid” value (Ethanol Red™; [4]) was −0.84%, the “% Boost over no added acid” value (Ethanol Red™; [5]) was −77.08% and the “% Boost over no added acid” value (Ethanol Red™; [6]) was −9.03%. For the same molecule, the “% Change from no added acid” value (Ethanol Red™; Concentration 10 mM, pH 3.8) was −24.78%, the “% Change from no added acid” value (Ethanol Red™; Concentration 10 mM, pH 5) was −24.26% and the “% Change from no added acid” value (Ethanol Red™; Concentration 20 mM, pH 3.8) was −31.55%. For the same molecule, the “% Change from no added acid” value (Ethanol Red™; Concentration 20 mM, pH 5) was −30.95%, the “% Change from no added acid” value (Ethanol Red™; Concentration 30 mM, pH 3.8) was −50.02% and the “% Change from no added acid” value (Ethanol Red™; Concentration 30 mM, pH 5) was −34.94%. For the same molecule, the “effect on ethanol production at pH 3.8” value (Ethanol Red™; pH 3.8) was “negative effect”.

With O=C(O)c1ccccc1 [Benzoic Acid, benzoic acid] the “effect of acid addition on fermentation performance” value (Ethanol Red™) was “increases fermentation performance”, the “Glycerol pH 3.8 (w/v %)” value (Ethanol Red™; Concentration 0.2 mM, pH 3.8) was 1.159 w/v % and the “Glycerol pH 5 (w/v %)” value (Ethanol Red™; Concentration 0.2 mM, pH 5) was 1.160 w/v %. For the same molecule, the “Glycerol pH 3.8 (w/v %)” value (Ethanol Red™; Concentration 0.5 mM, pH 3.8) was 1.091 w/v %, the “Glycerol pH 5 (w/v %)” value (Ethanol Red™; Concentration 0.5 mM, pH 5) was 1.127 w/v % and the “Glycerol pH 3.8 (w/v %)” value (Ethanol Red™; Concentration 0.8 mM, pH 3.8) was 1.041 w/v %. For the same molecule, the “Glycerol pH 5 (w/v %)” value (Ethanol Red™; Concentration 0.8 mM, pH 5) was 1.093 w/v %, the “ETOH pH 3.8 (w/v %)” value (Ethanol Red™; [7]) was 13.73 w/v % and the “ETOH pH 5 (w/v %)” value (Ethanol Red™; [8]) was 13.01 w/v %. For the same molecule, the “ETOH pH 3.8 (w/v %)” value (Ethanol Red™; [9]) was 13.6785 w/v %, the “ETOH pH 5 (w/v %)” value (Ethanol Red™; [10]) was 13.23 w/v % and the “ETOH pH 3.8 (w/v %)” value (Ethanol Red™; [11]) was 13.35 w/v %. The “ETOH pH 5 (w/v %)” value (Ethanol Red™; [12]) was 13.39 w/v %, the “% Boost over no added acid” value (Ethanol Red™; [7]) was 2.70% and the “% Boost over no added acid” value (Ethanol Red™; [8]) was 0.27%. For the same molecule, the “% Boost over no added acid” value (Ethanol Red™; [9]) was 2.33%, the “% Boost over no added acid” value (Ethanol Red™; [10]) was 1.96% and the “% Boost over no added acid” value (Ethanol Red™; [11]) was −0.12%. The “% Boost over no added acid” value (Ethanol Red™; [12]) was 3.20%, the “% Change from no added acid” value (Ethanol Red™; Concentration 0.2 mM, pH 3.8) was −11.47% and the “% Change from no added acid” value (Ethanol Red™; Concentration 0.2 mM, pH 5) was −13.60%. For the same molecule, the “% Change from no added acid” value (Ethanol Red™; Concentration 0.5 mM, pH 3.8) was −16.65%, the “% Change from no added acid” value (Ethanol Red™; Concentration 0.5 mM, pH 5) was −16.08% and the “% Change from no added acid” value (Ethanol Red™; Concentration 0.8 mM, pH 3.8) was −20.45%. For the same molecule, the “% Change from no added acid” value (Ethanol Red™; Concentration 0.8 mM, pH 5) was −18.58%.

B1: JTP211: protease variant of SEQ ID NO: 3: A27K D79L Y82F D104P A112P A126V D142L (protein, listed as Thermoascus aurantiacus)
chain: MRLVASLTALVALSVPVFPAAVNVKRASSYLEITLSQVSNTLIKAVVQNTGSDELSFVHLNFFKDPAPVKKVSVYRDGSEVQFEGILSRYKSTGLSRDAFTYLAPGESVEDVFDIASTYDLTSGGPVTIRTEGVVPYATANSTDIAGYISYSSNVLTIDVDGAAAATVSKAITPLDRRTRISSCSGSRQSALTTALRNAASLANKAADAAQSGSASKFSEYFKTTSSSTRQTVAARLRAVAREASSSSSGATTYYCLDPFGYCSSNVLAYTLPSYNIIANCPIFYTYLPPLTSTCHAQDQATTVLHEFTHAPGVYSPGTLDLAYGYQAAMGLSSSQAVMNADTYALYANAIYLGC
With B1 the “Relative activity 75° C./70° C.” value (zein; Table 5, lower part) was 94% and the “Relative activity 80° C./70° C.” value (zein; Table 5, lower part) was 44%.

B2: JTP134: protease variant of SEQ ID NO: 3: D79L Y82F S87P A112P D142L (protein, listed as Thermoascus aurantiacus)
chain: MRLVASLTALVALSVPVFPAAVNVKRASSYLEITLSQVSNTLIKAVVQNTGSDELSFVHLNFFKDPAPVKKVSVYRDGSEVQFEGILSRYKSTGLSRDAFTYLAPGESVEDVFDIASTYDLTSGGPVTIRTEGVVPYATANSTDIAGYISYSSNVLTIDVDGAAAATVSKAITPLDRRTRISSCSGSRQSALTTALRNAASLANAAADAAQSGSASKFSEYFKTTSSSTRQTVAARLRAVAREASSSSSGATTYYCLDPFGYCSPNVLAYTLPSYNIIANCDIFYTYLPPLTSTCHAQDQATTALHEFTHAPGVYSPGTLDLAYGYQAAMGLSSSQAVMNADTYALYANAIYLGC
With B2 the “Relative activity 80° C./70° C.” value (zein; Table 5, upper part) was 40%.

B3: JTP213: protease variant of SEQ ID NO: 3: A27K Y82F D104P A112P A126V D142L (protein, listed as Thermoascus aurantiacus)
chain: MRLVASLTALVALSVPVFPAAVNVKRASSYLEITLSQVSNTLIKAVVQNTGSDELSFVHLNFFKDPAPVKKVSVYRDGSEVQFEGILSRYKSTGLSRDAFTYLAPGESVEDVFDIASTYDLTSGGPVTIRTEGVVPYATANSTDIAGYISYSSNVLTIDVDGAAAATVSKAITPLDRRTRISSCSGSRQSALTTALRNAASLANKAADAAQSGSASKFSEYFKTTSSSTRQTVAARLRAVAREASSSSSGATTYYCDDPFGYCSSNVLAYTLPSYNIIANCPIFYTYLPPLTSTCHAQDQATTVLHEFTHAPGVYSPGTLDLAYGYQAAMGLSSSQAVMNADTYALYANAIYLGC
B3 was tested, and the “Relative activity 75° C./70° C.” value (zein; Table 5, lower part) was 103% and the “Relative activity 80° C./70° C.” value (zein; Table 5, lower part) was 37%.
